From US10501479B2, “Benzenesulfonyl-asymmetric ureas and medical uses thereof” (HELSINN HEALTHCARE SA, priority 2016, dated 2019)
Like-named read-outs stand apart in the source and are kept apart here.

What was measured:
[1] = Metabolic stability in mouse liver microsomes; type: in vitro ADME
Summary of the method: (§1)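 Test compounds were incubated with liver microsomes in 100 mM potassium phosphate buffer, pH 7.4, at 37 °C, with reactions started by an NADPH regenerating system after a 5 min preincubation. Samples taken at 0, 10, 30 and 90 min were quenched cold, centrifuged, and parent remaining was quantified by LC-MS/MS.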

[2] = target: T1, recombinant human ghrelin receptor (HEK293/GRLN) (Homo sapiens, UniProt Q92847); assay: Ghrelin inverse agonist potency (EC50) with IP-1 (IP-One HTRF) assay; type: cell-based; settings: IP-1 assay
T1 construct: expressed in transfected cells
Summary of the method: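 HEK293/GRLN cells were seeded 18-22 hours before the test, then exposed to compound in stimulation buffer for 1 hour at 37° C, 5% CO2. IP-1 was detected by IP-One HTRF (IP1-d2 plus Tb-cryptate, 1 hour RT), reading 620 and 665 nm; the inverse agonist EC50 was derived from this.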

[3] = Metabolic stability in human liver microsomes; type: in vitro ADME
Summary of the method: as §1

[4] = Metabolic stability in dog liver microsomes; type: in vitro ADME
Method: (§2) Metabolic Stability Study
(§3) The metabolic stability of compounds in human, dog, rat and mouse liver microsomes was performed according the experimental conditions reported below:
(§4) • a) Prepare the following 5 stock solutions: • 1. Test compound stock solutions: dilute 10 mM solution of dextromethorphan (Dtr) in DMSO, 10 mM solution of diphenhydramine (DPA) in DMSO, 10 mM solution of omeprazole (Ome) in DMSO, 10 mM solution of verapamil (Ver) in DMSO, and 10 mM of an inverse agonist compound in DMSO to 0.25 mM solution each with acetonitrile/water (70/30). • 2. Buffer: 100 mM potassium phosphate Buffer (PBS) at pH 7.4 • 3. Liver microsomes (20 mg/ml): Thaw in 37° C. water bath quickly • 4. 2000 μL: of NADPH regenerating system (1.3 mM). Place this system on ice before use:
(§5) • 5. […] The test compound concentration in the wells, measured by LC-MS/MS, represents the concentration at time=0. • f) To determine the test compound concentration when t≠0, pre-incubate the NADPH regenerating system and the incubation plate containing the remaining 320 μL of incubation mixture (microsomes protein and test compound) for 5 minutes at 37° C. • g) Start the incubation reaction by adding 80 μL NADPH regenerating system to each well containing the remaining 320 μL incubation mixture. • h) After 10 min., 30 min., and 90 min. of incubation at 37° C., transfer 100 μL of the incubation mixture (microsomes protein, test compound, and NADPH) into the wells of a stop plate pre-filled with 300 μL of the cold quench solution. Shake well. • i) Centrifuge the stop plate at 5000×g for 10 minutes. Collect and dilute the supernatant 3 times with distilled water. Sample and analyze the test compound concentration for all the wells by LC-MS/MS. Animal PK Studies via i.v. (intravenous), p.o. (orally) and s.c. (subcutaneous) administrations

[5] = target: T2, GHSR-1a (HEK293/GHSR1a cell line) (Homo sapiens, UniProt Q92847); assay: Ghrelin antagonist potency (IC50) with calcium FLIPR assay, ghrelin 10 nM; type: cell-based
T2 construct: expressed in transfected cells; host or cells: HEK293/GHSR1a cell line
Summary of the method: (§6)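 Cells seeded 24 h before the run were loaded with calcium dye for 30-60 min at room temperature or 37° C. For agonism, compound was added at t=20 sec and the calcium signal followed for 2 minutes. For antagonism, compound plus ghrelin (10 nM) went on at t=20 sec, and IC50 reflected the drop in ghrelin response.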

[6] = Metabolic stability in rat liver microsomes; type: in vitro ADME
Method: as §2, §3, §4, §5

[7] = target: T2, GHSR-1a (HEK293/GHSR1a cell line); assay: Ghrelin agonist potency (EC50) with calcium FLIPR assay; type: cell-based
Summary of the method: as §6

[8] = inverse agonist potency, read-out: EC50 (Activity)
[9] = ghrelin antagonist potency, read-out: IC50 (Activity)
[10] = HEK293/GRLN, read-out: Activity EC50 (ghrelin inverse agonist potency)
[11] = HEK293/GHSR1a, ghrelin 10 nM, read-out: Activity IC50 (ghrelin antagonist potency)
[12] = HEK293/GHSR1a, read-out: Activity EC50/EMax: EC50 (ghrelin agonist potency)
[13] = ghrelin inverse agonist potency, read-out: Activity EC50
[14] = ghrelin agonist potency, read-out: Activity EC50/EMax
[15] = ghrelin antagonist potency, read-out: Activity IC50

T2 sequence (Q92847 whole entry): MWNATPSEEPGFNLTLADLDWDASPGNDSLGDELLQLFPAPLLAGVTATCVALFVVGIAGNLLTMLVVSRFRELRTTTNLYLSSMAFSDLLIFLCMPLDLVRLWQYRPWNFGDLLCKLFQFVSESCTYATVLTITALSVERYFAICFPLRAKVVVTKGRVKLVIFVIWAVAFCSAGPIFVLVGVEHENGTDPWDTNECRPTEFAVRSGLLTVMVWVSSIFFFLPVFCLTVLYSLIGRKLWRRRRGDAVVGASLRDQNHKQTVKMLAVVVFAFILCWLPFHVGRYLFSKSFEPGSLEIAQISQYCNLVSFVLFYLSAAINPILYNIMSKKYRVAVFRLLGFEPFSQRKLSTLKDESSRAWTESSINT
T1 sequence (Q92847 whole entry): as above

Row | Structure (SMILES) | Metabolic Stability Study M = mouse [1] | EC50 [2, 8] | Metabolic Stability Study H = human [3] | Metabolic Stability Study D = dog [4] | IC50 [5, 9] | Metabolic Stability Study R = rat [6] | EC50 [2, 10] | IC50 [5, 11] | EC50 [7, 12] | EC50 [2, 13] | EC50 [7, 14] | IC50 [5, 15]
1 | CN(C)C(C)(C)Cc1ccc(NS(=O)(=O)c2ccc(NC(=O)NCc3cccc(Cl)c3Cl)cc2)cc1 [H0995, 4-(3-(2,3-dichlorobenzyl)ureido)-N-(4-(2-(dimethylamino)-2-methylpropyl)phenyl) benzenesulfonamide] | 194.6 µL/min/mg | 2.52 nM | 54.5 µL/min/mg | 52.7 µL/min/mg | 32.1 nM | 92.4 µL/min/mg | – | – | – | – | – | –
2 | CC(NC(=O)Nc1ccc(S(=O)(=O)Cc2ccc3c(c2)CC(C)N(C)C3)cc1)c1cccc(Cl)c1Cl (centres unmarked) [H1380, 1-(1-(2,3-dichlorophenyl)ethyl)-3-(4-(((2,3-dimethyl-1,2,3,4-tetrahydroisoquinolin-6-yl)methyl)sulfonyl)phenyl)urea] | 66.5 µL/min/mg | – | 137 µL/min/mg | 169.9 µL/min/mg | – | – | 0.367 nM | 2.3 nM | – | – | – | –
3 | C[C@@H](NC(=O)Nc1ccc(S(=O)(=O)Cc2ccc3c(c2)CNC3)cc1)c1ccccc1 [H1214, (R)-1-(4-((isoindolin-5-ylmethyl)sulfonyl)phenyl)-3-(1-phenylethyl)urea] | 21.4 µL/min/mg | 147 nM | 16.6 µL/min/mg | < 10 µL/min/mg | 278 nM | 18 µL/min/mg | – | – | – | – | – | –
4 | COc1ccccc1C(C)NC(=O)Nc1ccc(S(=O)(=O)Cc2ccc3c(c2)CNC3)cc1 (centres unmarked) [H1382, 1-(4-((isoindolin-5-ylmethyl)sulfonyl)phenyl)-3-(1-(2-methoxyphenyl)ethyl)urea] | 43.4 µL/min/mg | – | 42.4 µL/min/mg | 41.9 µL/min/mg | – | – | 2.68 nM | 34.3 nM | > 30 µM | – | – | –
5 | COc1cc(S(=O)(=O)Cc2ccc3c(c2)C(F)CNC3)ccc1NC(=O)N[C@H](C)c1cccc(Cl)c1Cl (stereo partly drawn) [H1543, 1-((R)-1-(2,3-dichlorophenyl)ethyl)-3-(4-(((4-fluoro-1,2,3,4-tetrahydroisoquinolin-6-yl)methyl)sulfonyl)-2-methoxyphenyl)urea] | – | – | 46.8 µL/min/mg | – | – | 204.6 µL/min/mg | – | – | – | 12.6 nM | > 30 µM | 15.9 nM
6 | CC(NC(=O)Nc1ccc(S(=O)(=O)Cc2cc(F)c3c(c2)CCN(C)C3)cc1)c1cccc(Cl)c1Cl (centres unmarked) [H1378, 1-(1-(2,3-dichlorophenyl)ethyl)-3-(4-(((8-fluoro-2-methyl-1,2,3,4-tetrahydroisoquinolin-6-yl)methyl)sulfonyl)phenyl)urea] | 245.9 µL/min/mg | – | 151.7 µL/min/mg | 227.9 µL/min/mg | – | – | 1.3 nM | 19 nM | > 30 µM | – | – | –
7 | CC(NC(=O)Nc1ccc(S(=O)(=O)Cc2ccc3c(c2)CCNC3)cc1C(=O)O)c1cccc(Cl)c1Cl (centres unmarked) [H1542, 2-(3-(1-(2,3-dichlorophenyl)ethyl)ureido)-5-(((1,2,3,4-tetrahydroisoquinolin-6-yl)methyl)sulfonyl)benzoic acid] | – | – | < 10 µL/min/mg | – | – | 13.3 µL/min/mg | – | – | – | 1.9 nM | > 30 µM | 1.69 nM
8 | CC(NC(=O)Nc1ccc(S(=O)(=O)Cc2nc3c(s2)CN(C)CC3)cc1)c1cccc(Cl)c1Cl (centres unmarked) [H1379, 1-(1-(2,3-dichlorophenyl)ethyl)-3-(4-(((5-methyl-4,5,6,7-tetrahydrothiazolo[5,4-c]pyridin-2-yl)methyl)sulfonyl)phenyl)urea] | > 500 µL/min/mg | – | 261.6 µL/min/mg | > 500 µL/min/mg | – | – | 1.43 nM | 44.3 nM | > 30 µM | – | – | –
9 | C[C@H](NC(=O)Nc1ccc(S(=O)(=O)Cc2ccc3[nH]ccc3c2)cc1)c1cccc(Cl)c1Cl [H1142, (S)-1-(4-(((1H-indol-5-yl)methyl)sulfonyl)phenyl)-3-(1-(2,3-dichlorophenyl)ethyl)urea] | 151.4 µL/min/mg | 440 nM | 114.9 µL/min/mg | – | – | 209.6 µL/min/mg | – | – | – | – | – | –
10 | C[C@H](NC(=O)Nc1ccc(S(=O)(=O)Nc2ccc(CC(C)(C)N)cc2)cc1)c1cccc(Cl)c1Cl.Cl [H0943, (S)-N-(4-(2-amino-2-methylpropyl)phenyl)-4-(3-(1-(2,3-dichlorophenyl)ethyl)ureido) benzenesulfonamide] | < 10 µL/min/mg | 2.5 nM | 10.6 µL/min/mg | < 10 µL/min/mg | 7.8 nM | 11.7 µL/min/mg | – | – | – | – | – | –
11 | COc1cc(S(=O)(=O)Cc2ccc3c(c2)C(F)CN(C)C3)ccc1NC(=O)N[C@H](C)c1cccc(Cl)c1Cl (stereo partly drawn) [H1544, 1-((R)-1-(2,3-dichlorophenyl)ethyl)-3-(4-(((4-fluoro-2-methyl-1,2,3,4-tetrahydroisoquinolin-6-yl)methyl)sulfonyl)-2-methoxyphenyl)urea] | – | – | 323.3 µL/min/mg | – | – | 427.2 µL/min/mg | – | – | – | 9.7 nM | > 30 µM | 40.4 nM
12 | COc1ccc([C@H](C)NC(=O)Nc2ccc(S(=O)(=O)Nc3ccc(CC(C)(C)N)cc3)cc2)c(Cl)c1Cl [H0937, (S)-N-(4-(2-amino-2-methylpropyl)phenyl)-4-(3-(1-(2,3-dichloro-4-methoxyphenyl)ethyl)ureido) benzenesulfonamide] | H = <10 M = <10 R = <10 D = <10 μL/min/mg | 12.7 nM | H = <10 M = <10 R = <10 D = <10 μL/min/mg | H = <10 M = <10 R = <10 D = <10 μL/min/mg | 84 nM | H = <10 M = <10 R = <10 D = <10 μL/min/mg | – | – | – | – | – | –
13 | CC(NC(=O)Nc1ccc(S(=O)(=O)Cc2ccc3c(c2)CCNC3)cc1C(=O)O)c1ccccc1 (centres unmarked) [H1541, 2-(3-(1-phenylethyl)ureido)-5-(((1,2,3,4-tetrahydroisoquinolin-6-yl)methyl)sulfonyl)benzoic acid] | – | – | H = <10 R = <10 μL/min/mg | – | – | H = <10 R = <10 μL/min/mg | – | – | – | 9.7 nM | > 30 µM | 72.3 nM
